In PMC10797628:
Like-named read-outs stand apart in the source and are kept apart here.

What was measured:
[1] = biological target: T1, human 5-HT1A receptor (Homo sapiens, UniProt P08908); assay: Radioligand binding (saturation and competition), WT 5-HT1A
T1 construct: host or cells: HEK293T
T1 sequence (P08908 1-422): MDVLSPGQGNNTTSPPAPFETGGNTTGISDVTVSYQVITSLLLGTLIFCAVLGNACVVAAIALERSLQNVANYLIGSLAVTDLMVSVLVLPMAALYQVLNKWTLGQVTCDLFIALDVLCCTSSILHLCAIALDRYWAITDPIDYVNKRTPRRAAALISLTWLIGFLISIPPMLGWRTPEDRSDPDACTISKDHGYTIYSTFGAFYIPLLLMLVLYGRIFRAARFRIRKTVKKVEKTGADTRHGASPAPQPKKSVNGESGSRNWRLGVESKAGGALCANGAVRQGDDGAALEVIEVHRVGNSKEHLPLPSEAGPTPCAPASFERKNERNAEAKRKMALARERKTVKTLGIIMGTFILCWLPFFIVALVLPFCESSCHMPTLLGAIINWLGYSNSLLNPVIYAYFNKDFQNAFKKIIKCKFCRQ

[2] = biological target: T2, human 5-HT1F receptor (Homo sapiens, UniProt P30939); assay: Radioligand binding (saturation and competition), WT 5-HT1F
T2 construct: host or cells: HEK293T
T2 sequence (P30939 1-366): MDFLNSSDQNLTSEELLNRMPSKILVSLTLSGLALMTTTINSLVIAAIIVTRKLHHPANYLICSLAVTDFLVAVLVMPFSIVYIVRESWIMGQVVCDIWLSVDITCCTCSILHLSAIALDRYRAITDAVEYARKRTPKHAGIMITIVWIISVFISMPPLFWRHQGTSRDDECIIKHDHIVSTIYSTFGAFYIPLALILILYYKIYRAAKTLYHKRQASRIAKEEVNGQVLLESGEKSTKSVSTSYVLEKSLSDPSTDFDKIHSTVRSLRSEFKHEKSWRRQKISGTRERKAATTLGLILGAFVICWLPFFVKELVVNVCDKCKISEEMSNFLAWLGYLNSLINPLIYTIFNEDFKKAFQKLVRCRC

[3] = biological target: T3, human 5-HT1B receptor (Homo sapiens, UniProt P28222); assay: Radioligand binding (saturation and competition), WT 5-HT1B
T3 construct: host or cells: HEK293T
T3 sequence (P28222 whole entry): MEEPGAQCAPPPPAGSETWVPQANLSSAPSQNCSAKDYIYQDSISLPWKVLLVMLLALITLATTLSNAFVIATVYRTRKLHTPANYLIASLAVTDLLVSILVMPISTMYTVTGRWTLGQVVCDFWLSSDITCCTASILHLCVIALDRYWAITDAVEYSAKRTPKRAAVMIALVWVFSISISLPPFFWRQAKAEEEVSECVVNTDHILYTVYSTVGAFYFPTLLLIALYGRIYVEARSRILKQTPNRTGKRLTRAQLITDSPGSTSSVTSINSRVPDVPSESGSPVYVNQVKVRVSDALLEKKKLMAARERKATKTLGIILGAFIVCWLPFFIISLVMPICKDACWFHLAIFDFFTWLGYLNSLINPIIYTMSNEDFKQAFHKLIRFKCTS

[4] = biological target: T4, human 5-HT1D receptor (Homo sapiens, UniProt P28221); assay: Radioligand binding (saturation and competition), WT 5-HT1D
T4 construct: host or cells: HEK293T
T4 sequence (P28221 whole entry): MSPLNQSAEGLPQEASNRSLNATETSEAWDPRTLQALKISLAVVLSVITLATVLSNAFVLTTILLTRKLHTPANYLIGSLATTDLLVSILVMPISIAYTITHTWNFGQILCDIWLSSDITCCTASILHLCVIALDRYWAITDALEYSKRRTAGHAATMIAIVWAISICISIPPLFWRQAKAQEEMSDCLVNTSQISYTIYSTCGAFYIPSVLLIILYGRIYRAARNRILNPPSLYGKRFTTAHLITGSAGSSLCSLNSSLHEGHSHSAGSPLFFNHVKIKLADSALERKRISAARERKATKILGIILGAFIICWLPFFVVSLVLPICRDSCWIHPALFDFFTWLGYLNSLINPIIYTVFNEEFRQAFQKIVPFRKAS

[5] = biological target: T1, human 5-HT1A receptor; assay: cAMP accumulation (LANCE Ultra TR-FRET) in HEK293T cells, WT 5-HT1A; assay type: cell-based; settings: for Emax: HEK-293T; for EC50: cAMP accumulation, HEKt cells, mean ± SD
Experimental: (§1) Briefly, cells transfected with the desired receptor construct and compounds were incubated in the dark for 90 min at 37 °C. After incubation, cAMP detection reagents were added, and TR-FRET was used to quantify the cAMP produced.
(§2) The functional activity of compounds was determined by stimulating cells expressing the desired receptor with FSK and test compound in parallel with 12 known concentrations of cAMP. The known concentrations of cAMP were used to create a standard curve for each experiment that was used to interpolate the unknown values of cAMP in wells with test compounds. […] The EC50 and EMAX values were determined using the “dose response – log[agonist] vs response (three parameter)” nonlinear regression model in Prism and transformed to pEC50 values, reported as mean ± SD.
(§3) Summary of functional assay conditions at various 5-HT1 receptor point mutation constructs.

[6] = biological target: T4, human 5-HT1D receptor; assay: cAMP accumulation (LANCE Ultra TR-FRET) in HEK293T cells, WT 5-HT1D; assay type: cell-based; settings: for Emax: HEK-293T; for EC50: cAMP accumulation, HEKt cells, mean ± SD
Experimental: as §1, §2, §3

[7] = biological target: T3, human 5-HT1B receptor; assay: cAMP accumulation (LANCE Ultra TR-FRET) in HEK293T cells, WT 5-HT1B; assay type: cell-based; settings: for Emax: HEK-293T; for EC50: cAMP accumulation, HEKt cells, mean ± SD
Experimental: as §1, §2, §3

[8] = Affinity (pKi ± SD) 5-HT1A, WT receptor, [^3H]5-CT competition, mean ± SD
[9] = Affinity (pKi ± SD) 5-HT1B, WT receptor, [^3H]5-CT competition, mean ± SD
[10] = Affinity (pKi ± SD) 5-HT1D, WT receptor, [^3H]5-CT competition, mean ± SD
[11] = WT receptor, normalized to basal (0%) and 10 μM 5-CT (100%)
[12] = read-out: Affinity (pKi ± SD) 5-HT1A (converted)
[13] = WT receptor, [^3H]5-HT competition, mean ± SD, read-out: Affinity (pKi ± SD) 5-HT1F (converted)
[14] = read-out: Affinity (pKi ± SD) 5-HT1B (converted)
[15] = read-out: Affinity (pKi ± SD) 5-HT1D (converted)
[16] = read-out: 5-HT1D EMAX (%), WT receptor, normalized to basal (0%) and 10 μM 5-CT (100%)
[17] = read-out: 5-HT1B EMAX (%), WT receptor, normalized to basal (0%) and 10 μM 5-CT (100%)
[18] = read-out: 5-HT1A EMAX (%), WT receptor, normalized to basal (0%) and 10 μM 5-CT (100%)
[19] = WT receptor, read-out: 5-HT1D pEC50 (converted)
[20] = WT receptor, read-out: 5-HT1A pEC50 (converted)
[21] = WT receptor, read-out: 5-HT1B pEC50 (converted)

## CCCN(CCC)C1CCc2cccc(O)c2C1 (stereo not shown) [8-OH-DPAT, 8-hydroxy-N,N-dipropyl-1,2,3,4-tetrahydronaphthalen-2-amine, reference compound]
[1]; affinity ratio
  higher affinity at the 5-HT1A receptor over 5-HT1B and 5-HT1D receptors: 10–20 fold

## CN(C)[C@@H]1CCc2c(cccc2-c2ccccc2)C1 [(R)-5-PAT]
[1]; [8]
  Ki: 1050 nM
[2]
  Ki: > 10000 nM
[3]; [9]
  Ki: 1320 nM
[4]; [10]
  Ki: 282 nM

## CCCN(CCC)[C@@H]1CCc2cccc(O)c2C1 [(R)-8-OH-DPAT, 8-hydroxy-N,N-dipropyl-1,2,3,4-tetrahydronaphthalen-2-amine, reference compound]
[5]; [11]
  5-HT1A EMAX (%): 95 ± 4%
[6]; [11]
  5-HT1D EMAX (%): 96 ± 2%
[7]; [11]
  5-HT1B EMAX (%): 87 ± 4%

## CN(C)[C@@H]1CCc2c(cccc2-c2ccccc2Cl)C1 [(R)-CPT]
[1]; [8]
  Ki: 2140 nM
[2]
  Ki: > 10000 nM
[3]; [9]
  Ki: 72.4 nM
[4]; [10]
  Ki: 417 nM

## CCCN(CCC)[C@@H]1CCc2c(cccc2-c2ccccc2Cl)C1 [(R)-DCPT]
[1]; [8]
  Ki: 117 nM
[2]
  Ki: > 10000 nM
[3]; [9]
  Ki: 55 nM
[4]; [10]
  Ki: 117 nM

## CCCN(CCC)[C@@H]1CCc2c(cccc2-c2ccccc2F)C1 [(R)-DFPT]
[1]; [8]
  Ki: 117 nM
[2]
  Ki: > 10000 nM
[3]; [9]
  Ki: 64.6 nM
[4]; [10]
  Ki: 107 nM

## CN(C)[C@@H]1CCc2c(cccc2-c2ccco2)C1 [(R)-FAT]
[1]; [8]
  Ki: 537 nM
[2]
  Ki: > 10000 nM
[3]; [9]
  Ki: 550 nM
[4]; [10]
  Ki: 214 nM

## CN(C)[C@@H]1CCc2c(cccc2-c2ccccc2F)C1 [(R)-FPT]
[2]
  Ki: > 10000 nM
[3]; [9]
  Ki: 240 nM
[4]; [10]
  Ki: 912 nM

## CN(C)[C@@H]1CCc2c(cccc2-c2cccc3ccccc23)C1 [(R)-NAP]
[1]; [8]
  Ki: 263 nM
[2]
  Ki: > 10000 nM
[3]; [9]
  Ki: 155 nM
[4]; [10]
  Ki: 107 nM

## CN(C)[C@@H]1CCc2c(cccc2-c2cccn2C)C1 [(R)-NMP]
[1]; WT receptor, [^3H]5-CT competition, mean ± SD
  Affinity (pKi ± SD) 5-HT1A: 6.26 ± 0.03
[2]
  Ki: > 10000 nM
[3]; [9]
  Ki: 339 nM
[4]; [10]
  Ki: 316 nM

## Fc1ccccc1-c1cccc2c1CC[C@@H](N1CCCC1)C2 [(R)-PFPT]
[1]; [12]
  Ki: 288 nM
[2]; [13]
  Ki: > 10000 nM
[3]; [14]
  Ki: 457 nM
[4]; [15]
  Ki: 417 nM

## CN(C)[C@@H]1CCc2c(cccc2-c2cccs2)C1 [(R)-TAT]
[1]; [8]
  Ki: 1510 nM
[2]
  Ki: > 10000 nM
[3]; [9]
  Ki: 3160 nM
[4]; [10]
  Ki: 813 nM

## CCCN(CCC)[C@H]1CCc2cccc(O)c2C1 [(S)-8-OH-DPAT, 8-hydroxy-N,N-dipropyl-1,2,3,4-tetrahydronaphthalen-2-amine, reference compound]
[2]
  Ki: > 10000 nM
[5]; [11]
  5-HT1A EMAX (%): 70 ± 3%
[6]; [16]
  Emax: 94 ± 2%
[7]; [17]
  Emax: 85 ± 3%

## O=C1CCc2ccc(OCCCCN3CCN(c4cccc(Cl)c4Cl)CC3)cc2N1 [Aripiprazole, aripiprazole, reference compound]
[2]; [13]
  Ki: 7240 nM
[5]; [18]
  Emax: 96 ± 2%
[6]; [16]
  Emax: 96 ± 1%
[7]; [17]
  Emax: 99 ± 3%

## O=C1CC2(CCCC2)CC(=O)N1CCCCN1CCN(c2ncccn2)CC1 [Buspirone, buspirone, reference compound]
[2]; [13]
  Ki: > 10000 nM
[4]; [15]
  Ki: 617 nM
[5]; read-out: 5-HT1A EMAX (%)
  Emax: 75 ± 1%
[6]; read-out: 5-HT1D EMAX (%)
  Emax: 50 ± 3%
[6]; [19]
  EC50: > 10000 nM
[7]; read-out: 5-HT1B EMAX (%)
  Emax: 45 ± 3%

## CN(C)[C@H]1CCc2c(cccc2-c2cccc3c2oc2ccccc23)C1 [DBZ, (S)-5-(Dibenzo[b,d]furan-4-yl)-N,N-dimethyl-1,2,3,4-tetrahydronaphthalen-2-amine]
[1]; [12]
  Ki: 309 nM
[3]; [14]
  Ki: 69.2 nM
[4]; [15]
  Ki: 4.79 nM
[5]; read-out: 5-HT1A EMAX (%)
  Emax: 93 ± 4%
[5]; [20]
  EC50: 813 nM
[6]; read-out: 5-HT1D EMAX (%)
  Emax: 99 ± 2%
[6]; [19]
  EC50: 4.37 nM
[7]; read-out: 5-HT1B EMAX (%)
  Emax: 93 ± 2%
[7]; [21]
  EC50: 64.6 nM

## CN(C)[C@H]1CCc2c(cccc2-c2c(F)cccc2F)C1 [Di-FPT, (S)-5-(2,6-Difluorophenyl)-N,N-dimethyl-1,2,3,4-tetrahydronaphthalen-2-amine]
[1]; [8]
  Ki: 1.7 nM
[3]; [9]
  Ki: 1.62 nM
[4]; [10]
  Ki: 1.41 nM
[5]; 5-HT1A pEC50, WT receptor
  EC50: 1.74 nM
[5]; [18]
  Emax: 98 ± 2%
[6]; 5-HT1D pEC50, WT receptor
  EC50: 1.66 nM
[6]; [16]
  Emax: 100 ± 1%
[7]; 5-HT1B pEC50, WT receptor
  EC50: 2.09 nM
[7]; [17]
  Emax: 100 ± 1%

## Fc1ccccc1-c1cccc2c1CC[C@H](N1CCNCC1)C2 [FPIP, (S)-1-(5-(2-Fluorophenyl)-1,2,3,4-tetrahydronaphthalen-2-yl)piperazine]
[1]; [12]
  Ki: 0.977 nM
[3]; [14]
  Ki: 107 nM
[4]; [15]
  Ki: 87.1 nM
[5]; read-out: 5-HT1A EMAX (%)
  Emax: 95 ± 2%
[5]; [20]
  EC50: 1.2 nM
[5]; full efficacy 5-HT1A agonist
  selectivity over 5-HT1B and 5-HT1D receptors: 100 fold
[6]; read-out: 5-HT1D EMAX (%)
  Emax: 98 ± 2%
[6]; [19]
  EC50: 148 nM
[7]; read-out: 5-HT1B EMAX (%)
  Emax: 99 ± 3%
[7]; [21]
  EC50: 126 nM

## CN1CCC(c2c[nH]c3ccc(NC(=O)c4ccc(F)cc4)cc23)CC1 [LY334370, reference compound]
[1]; [12]
  Ki: 501 nM
[2]; [13]
  Ki: 8.32 nM
[4]; [15]
  Ki: 2040 nM

## Cc1ccc(CNCC2(F)CCN(C(=O)c3ccc(F)c(Cl)c3)CC2)nc1 [NLX-112, reference compound]
[2]
  Ki: > 10000 nM
[3]; [9]
  Ki: > 10000 nM
[4]; [10]
  Ki: > 10000 nM
[5]; read-out: 5-HT1A EMAX (%)
  Emax: 100 ± 3%
[6]; read-out: 5-HT1D pEC50 (converted), WT receptor
  EC50: > 10000 nM
[7]; read-out: 5-HT1B pEC50 (converted), WT receptor
  EC50: > 10000 nM
